{"source": "patent US11479587B2", "about": "“Cationic intrinsically disordered antimicrobial peptides” (priority 2016, dated 2022)", "key": {"S. aureus ATCC 6538": {"test_system": "S. aureus ATCC 6538", "assay": "CFU-assay, S. aureus-cidal activity", "format": "cell-based, Staphylococcus aureus", "procedure": "Thus, within the present invention, the antimicrobial activity is generally measured in nutrient deficient 10 mM sodium phosphate buffer pH 5.5, containing 0.25% glucose, using the CFU-assay according to Steinberg and Lehrer, 1997 (supra), unless otherwise indicated. The CFU-assay allows determination of the minimal bactericidal concentration (MBC, e.g., MBC90 and MBC100; i.e. the concentration of compound required to achieve a specified reduction in bacterial cell number (microbial death or killing)).\nVarious peptides corresponding to repeat domains of hornerin (HR 1-11: HRNR 2606-2628; HR 1-17: HRNR 2656-2684 and HR 1-18: HRNR 2656-2677) were tested for P. aeruginosa ATCC 10145-cidal activity in 10 mM Na-phosphate buffer pH 5.5, containing 0.25% glucose by counting the numbers of colonies of surviving bacteria at serial, twofold dilutions from 300 μg/ml down to 19 ng/ml of each peptide (CFU-assay; Steinberg and Lehrer, 1997, Methods Mol. Biol. 78, 169-186).\nStaphylococcus aureus is a major skin pathogen, which causes skin infections, in particular in atopic dermatitis. The sensitivity of S. aureus ATCC 6538 towards several CIDAMPs was assessed using the CFU-assay as above (see Example 1). HR 1-18, which lacks S. aureus.-bactericidal activity, is converted in a S. aureus-cidal peptide, when all His are replaced by Arg (HR 1-18 4H-4R; see Table 13 and FIG. 9). […] HR 1-18 4H-4R is rich in Ser and Arg and contains a single Leu residue. When this single Leu was replaced by Gly in S. aureus-cidal HR 1-18 4H-4R (forming HR 1-18 4H-4R/L-G), S. aureus-cidal activity was abolished at both pH 7.0 and pH 5.5 (see Table 13 and FIG. 9)."}, "[1]": {"assay": "Cytotoxicity (resazurin) assay", "procedure": "For the cytotoxicity (resazurin) assay, HEK293 cells were counted manually in a Neubauer haemocytometer and plated at a density of 4000 cells/well into each well of the 384-well plates containing the 25×(2 μl) concentrated compounds. The medium used was Dulbecco's modified eagle medium (DMEM) supplemented with 10% foetal bovine serum (FBS). Cells were incubated together with the compounds for 20 h at 37° C., 5% CO2. To measure cytotoxicity, 5 μl (equals 100 μM final) resazurin was added to each well after incubation, and incubated for further 3 h at 37° C. with 5% CO2.\nAfter final incubation fluorescence intensity was measured as F ex 560/10 nm, em 590/10 nm (F560/590) using a Tecan M1000 Pro monochromator plate reader. […] The concentration dependent percentage cytotoxicity was fitted to a dose response function (using Pipeline Pilot) and CC50 values determined."}, "P. aeruginosa ATCC 10145": {"test_system": "P. aeruginosa ATCC 10145", "assay": "CFU-assay, P. aeruginosa-cidal activity", "format": "cell-based, Pseudomonas aeruginosa"}}, "note": "Marks after values point to notes of the source that are not given here. Residues, ends and D or L forms follow the SMILES beside them. No end group written: not given here. *: point of attachment. Palmitoyl = CCCCCCCCCCCCCCCC(=O)*; Myristoyl = CCCCCCCCCCCCCC(=O)*"}
{"compound": "SGHSSVFGQHESGSGHSSAYSQHGSGSGHFC-Pal* (SGHSSVFGQHESGSGHSSAYSQHGSGSGHFC(Palmitoyl)-NH2) [S-Pal-HRNR1748-1778]", "values": [{"measurement": "MBC100", "setting": "S. aureus ATCC 6538; pH 5.5", "value": 2.8, "unit": "µM"}, {"measurement": "MBC90", "setting": "S. aureus ATCC 6538; pH 5.5, 0.25% glucose", "value": 0.3, "unit": "µg/mL"}, {"measurement": "MBC100", "setting": "S. aureus ATCC 6538; pH 5.5, 0.25% glucose", "value": 9.38, "unit": "µg/mL"}, {"measurement": "MBC90", "setting": "S. aureus ATCC 6538; pH 5.5, 0.25% glucose (text)", "value": 0.09, "unit": "µM"}]}
{"compound": "CCCCCCCCCCCCCCCC(=O)SC[C@H](NC(=O)[C@H](CCCNC(=N)N)NC(=O)CNC(=O)[C@H](CCCNC(=N)N)NC(=O)CNC(=O)[C@H](CCCNC(=N)N)NC(=O)CNC(=O)CNC(=O)[C@H](CCCNC(=N)N)NC(=O)CNC(=O)CNC(=O)[C@H](CCCNC(=N)N)NC(=O)[C@H](CCCNC(=N)N)NC(=O)CN)C(N)=O", "note": "[C-Pal-GR13] (H-GRRGGRGGRGRGRC(Palmitoyl)-NH2)", "values": [{"measurement": "CC50", "setting": "[1]", "value": "> 32", "unit": "µg/mL"}]}
{"compound": "GQHGSSSGHSSTHGQHGSASGQSSSC-Pal* (GQHGSSSGHSSTHGQHGSASGQSSSC(Pal)-NH2) [S-Pal-HRNR2004-2029]", "values": [{"measurement": "MBC90", "setting": "S. aureus ATCC 6538; pH 5.5, 0.25% glucose", "value": 0.59, "unit": "µg/mL"}]}
{"compound": "Pal-SHHRHFRSHQCRRQRSNSCDR (Palmitoyl-SHHRHFRSHQCRRQRSNSCDR; cysteine pairing not given here) [Pal-LCE3C55-75]", "values": [{"measurement": "MBC90", "setting": "S. aureus ATCC 6538; pH 5.5, 0.25% glucose", "value": 0.15, "unit": "µg/mL"}, {"measurement": "MBC100", "setting": "S. aureus ATCC 6538; pH 5.5, 0.25% glucose", "value": 0.59, "unit": "µg/mL"}]}
{"compound": "GRHGSGSGQSSGFGHHESSSWQSSGC-Pal* (GRHGSGSGQSSGFGHHESSSWQSSGC(Palmitoyl)-NH2) [S-Pal-HRNR1389-1414]", "values": [{"measurement": "MBC90", "setting": "S. aureus ATCC 6538; pH 5.5, 0.25% glucose", "value": 1.18, "unit": "µg/mL"}, {"measurement": "MBC100", "setting": "S. aureus ATCC 6538; pH 5.5, 0.25% glucose", "value": 18.8, "unit": "µg/mL"}]}
{"compound": "Pal-CGQHGATSGQSSSHGQHGSGSSQSSR (C(Palmitoyl)GQHGATSGQSSSHGQHGSGSSQSSR) [S-Pal-HRNR623-648]", "values": [{"measurement": "MBC90", "setting": "S. aureus ATCC 6538; pH 5.5, 0.25% glucose", "value": 2.35, "unit": "µg/mL"}, {"measurement": "MBC100", "setting": "S. aureus ATCC 6538; pH 5.5, 0.25% glucose", "value": ">150", "unit": "µg/mL"}]}
{"compound": "Pal-CGQHGATSSGQSSSHGQHGSGSSQSSGYGR (C(Palmitoyl)GQHGATSSGQSSSHGQHGSGSSQSSGYGR) [S-Pal-HRNR1089-1117]", "values": [{"measurement": "MBC90", "setting": "S. aureus ATCC 6538; pH 5.5, 0.25% glucose", "value": ">150", "unit": "µg/mL"}, {"measurement": "MBC100", "setting": "S. aureus ATCC 6538; pH 5.5, 0.25% glucose", "value": ">150", "unit": "µg/mL"}]}
{"compound": "SRRSSSLSRSSSRSSRSSSSSR (Modified peptide derived from human hornerin (HR 1-18 4H-4R/9G-9S))", "values": [{"measurement": "MBC90", "setting": "P. aeruginosa ATCC 10145; pH 5.0, 0.25% glucose", "value": 0.15, "unit": "µg/mL"}, {"measurement": "MBC100", "setting": "P. aeruginosa ATCC 10145; pH 5.0, 0.25% glucose", "value": 1.18, "unit": "µg/mL"}, {"measurement": "MBC90", "setting": "S. aureus ATCC 6538; pH 5.5, 0.25% glucose", "value": 150, "unit": "µg/mL"}, {"measurement": "MBC100", "setting": "S. aureus ATCC 6538; pH 5.5, 0.25% glucose", "value": ">300", "unit": "µg/mL"}, {"measurement": "MBC90", "setting": "S. aureus ATCC 6538; pH 7.2, 0.25% glucose", "value": 75, "unit": "µg/mL"}, {"measurement": "MBC100", "setting": "S. aureus ATCC 6538; pH 7.2, 0.25% glucose", "value": ">300", "unit": "µg/mL"}]}
{"compound": "GQHGSSSGHSSTHGQHGSTSGQSSSC-Pal* (GQHGSSSGHSSTHGQHGSTSGQSSSC(Pal)-NH2) [S-Pal-HRNR598-623]", "values": [{"measurement": "MBC90", "setting": "S. aureus ATCC 6538; pH 5.5, 0.25% glucose", "value": 2.35, "unit": "µg/mL"}, {"measurement": "MBC100", "setting": "S. aureus ATCC 6538; pH 5.5, 0.25% glucose", "value": ">150", "unit": "µg/mL"}]}
{"compound": "GHHGGHGGHGHGH (Synthetic cationic intrinsically disordered antimicrobial peptide (GH13))", "values": [{"measurement": "MBC90", "setting": "P. aeruginosa ATCC 10145; pH 5.5, 0.25% glucose", "value": 0.030, "unit": "µM"}, {"measurement": "MBC100", "setting": "P. aeruginosa ATCC 10145; pH 5.5, 0.25% glucose", "value": 0.12, "unit": "µM"}]}
{"compound": "GRRGSGGGRSSSRGGRGSGSGR (Modified peptide derived from human hornerin (HR 1-18 4H-4R/L-G))", "values": [{"measurement": "MBC90", "setting": "P. aeruginosa ATCC 10145; pH 5.0, 0.25% glucose", "value": 0.038, "unit": "µg/mL"}, {"measurement": "MBC100", "setting": "P. aeruginosa ATCC 10145; pH 5.0, 0.25% glucose", "value": 0.15, "unit": "µg/mL"}, {"measurement": "MBC90", "setting": "S. aureus ATCC 6538; pH 5.5, 0.25% glucose", "value": ">300", "unit": "µg/mL"}, {"measurement": "MBC100", "setting": "S. aureus ATCC 6538; pH 5.5, 0.25% glucose", "value": ">300", "unit": "µg/mL"}, {"measurement": "S. aureus-cidal activity (in words)", "setting": "S. aureus ATCC 6538; pH 7.0 and pH 5.5", "value": "abolished"}]}
{"compound": "RGSRSGQSSRGERR (Modified peptide derived from human hornerin (HR 1-11s 2H2R-14))", "values": [{"measurement": "MBC90", "setting": "P. aeruginosa ATCC 10145; pH 5.5, 0.25% glucose", "value": 0.15, "unit": "µg/mL"}, {"measurement": "MBC100", "setting": "P. aeruginosa ATCC 10145; pH 5.5, 0.25% glucose", "value": 4.7, "unit": "µg/mL"}]}
{"compound": "RGSRSGQSSRGERRGSSSGSSSR (Modified peptide derived from human hornerin (HR 1-11 3H3R))", "values": [{"measurement": "MBC90", "setting": "P. aeruginosa ATCC 10145; pH 5.5, 0.25% glucose", "value": 0.3, "unit": "µg/mL"}, {"measurement": "MBC100", "setting": "P. aeruginosa ATCC 10145; pH 5.5, 0.25% glucose", "value": "9.375* μg/ml"}]}
{"compound": "Myr-GRRGSGLGRSSSRGQRGSGSGR (Myristoyl-GRRGSGLGRSSSRGQRGSGSGR) [Myr-HR 1-18 HR]", "values": [{"measurement": "MBC90", "setting": "S. aureus ATCC 6538; pH 7.3, 1% TSB", "value": 18.75, "unit": "µg/mL"}, {"measurement": "MBC100", "setting": "S. aureus ATCC 6538; pH 7.3, 1% TSB", "value": 75, "unit": "µg/mL"}]}
{"compound": "RGSGSGHQGHSSSHGLGSGHRG (Peptide with reverse sequence to 18 amino acid peptide derived from human hornerin (revHR 1-18))", "values": [{"measurement": "MBC90", "setting": "P. aeruginosa ATCC 10145; pH 5.0, 0.25% glucose", "value": "<0.019", "unit": "µg/mL"}, {"measurement": "MBC100", "setting": "P. aeruginosa ATCC 10145; pH 5.0, 0.25% glucose", "value": 0.075, "unit": "µg/mL"}]}
{"compound": "HR 2-8: CIDAMP tested alone and in 1:1 mixture with HR 1-8 HRNR2658-2677 (GSGSRQSPSYGR; Peptide derived from human hornerin (HR 2-8))", "values": [{"measurement": "MBC90", "setting": "P. aeruginosa ATCC 10145; pH 5.5, 1% TSB", "value": 18.75, "unit": "µg/mL"}, {"measurement": "MBC100", "setting": "P. aeruginosa ATCC 10145; pH 5.5, 1% TSB", "value": ">300", "unit": "µg/mL"}]}
